Laboratory results published in publication doi:10.1101/2020.04.22.021360v1 (biorxiv, 2020).

Assays:
[1] = target: T1, PDE2 (cGMP-dependent 3',5'-cyclic phosphodiesterase; PDE2A) (Homo sapiens, UniProt O00408); assay: MicroScale Thermophoresis, 12-concentration dilution; type: binding
[2] = target: T1, PDE2 (cGMP-dependent 3',5'-cyclic phosphodiesterase; PDE2A); assay: biochemical

T1 sequence (O00408 2-941): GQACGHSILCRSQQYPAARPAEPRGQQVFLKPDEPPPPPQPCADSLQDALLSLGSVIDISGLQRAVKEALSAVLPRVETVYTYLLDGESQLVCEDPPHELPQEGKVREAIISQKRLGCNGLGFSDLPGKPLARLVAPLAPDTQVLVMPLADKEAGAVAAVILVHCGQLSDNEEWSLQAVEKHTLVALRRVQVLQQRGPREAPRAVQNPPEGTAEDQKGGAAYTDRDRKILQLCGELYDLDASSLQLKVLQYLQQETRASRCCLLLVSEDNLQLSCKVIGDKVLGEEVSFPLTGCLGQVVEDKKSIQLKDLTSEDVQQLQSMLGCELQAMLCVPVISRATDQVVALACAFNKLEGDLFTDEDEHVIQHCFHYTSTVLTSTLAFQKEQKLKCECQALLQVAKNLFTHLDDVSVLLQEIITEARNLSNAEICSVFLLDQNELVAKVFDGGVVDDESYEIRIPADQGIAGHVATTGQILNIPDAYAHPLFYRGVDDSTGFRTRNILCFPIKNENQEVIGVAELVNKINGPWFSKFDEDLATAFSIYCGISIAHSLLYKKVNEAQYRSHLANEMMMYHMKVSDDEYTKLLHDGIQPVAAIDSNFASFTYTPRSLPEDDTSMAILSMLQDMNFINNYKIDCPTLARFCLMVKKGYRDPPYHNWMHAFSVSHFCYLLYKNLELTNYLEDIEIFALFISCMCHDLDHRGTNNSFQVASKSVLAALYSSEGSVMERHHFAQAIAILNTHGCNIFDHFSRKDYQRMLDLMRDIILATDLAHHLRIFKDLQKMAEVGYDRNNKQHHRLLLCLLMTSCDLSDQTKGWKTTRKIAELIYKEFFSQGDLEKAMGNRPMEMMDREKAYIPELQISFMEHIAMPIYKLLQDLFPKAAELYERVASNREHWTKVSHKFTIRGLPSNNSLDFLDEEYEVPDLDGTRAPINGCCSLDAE

Structure (SMILES) | Kd [1] [µM] | further results
CSc1nc2ccccc2c(=O)n1-c1ccc(F)cc1F [Z19056583] | 10.1 | Kd [2]: 9.58 µM
CCn1c(=O)c(=O)[nH]c2cc(C(=O)Nc3nc(-c4cccnc4)cs3)ccc21 [Z29458849] | – | Kd ([1]; dye-labelled PDE2, 1:1 fit): 24.9 µM; Kd ([2]; binder): 21.1 µM
O=C(Nc1ccc(Cl)cc1F)c1ccc(-n2cnc3ccccc32)cc1 [Z87546752] | > 100 | –
O=C(O)c1ccc(C=C2Cc3c(O)cccc3C2=O)cc1 [Z217160080] | – | Kd ([1]; read-out: apparent KD, dye-labelled PDE2, weak binder, no KD fit): > 100 µM
CCSc1nc2ccccc2c2nc(C)nn12 [Z226974122] | > 100 | –
Cc1nccc(C(=O)Nc2[nH]ncc2-c2cccc(Cl)c2)n1 [Z973817294] | > 100 | –
CSc1nc(Cl)c(C)c(NCC2CCOC2)n1 (stereo not shown) [Z3216015031] | 14.2 | Kd [2]: 12.8 µM
